Test results published in patent US9145375B2, “Quinazolinone compounds” (PRANA BIOTECHNOLOGY LIMITED, priority 2008, dated 2015).
Values joined by “and” are separate entries in the source; they are usually repeats but may differ in a detail not shown here. Identical values can stand only once.

Assays:
[1] = tested on: generation of hydrogen peroxide (H2O2) by iron; test: H2O2 Inhibition Assay; type: biochemical
Description: Assay 1. H2O2 Inhibition Assay.
(§1) This fluoresence assay evaluates the ability of a test compound to inhibit the generation of hydrogen peroxide (H2O2) by iron in the presence of a reducing substrate such as ascorbic acid. In the assay, iron in the form of FeCl3 or copper is allowed to react with ascorbic acid by incubating for 1 hr at 37° C. in the presence of the fluorescing compound DCF and horseradish peroxidase. H2O2 generated by the system is assessed by measuring the specific fluorescence profile at the excitation and emission wavelengths of 485 and 530 nm respectively, in the presence of increasing concentrations of test compound. Test compounds are ranked according to their capacity to inhibit H2O2 generated by the system where lower values reflect greater ability to inhibit H2O2 production.

[2] = tested on: Fe-DA; test: H2O2 assay, Fe-DA (% cf. Fe 0.4 μM/DA 50 μM); type: biochemical; conditions: Fe 0.4 μM/DA 50 μM
Description: as §1

[3] = tested on: M17 human neuroblastoma cells; test: Metal Uptake Assay (metal transport); type: cell-based; conditions: 10 μM Cu + 10 μM compound, 5 hours
Description: Assay 3. Metal Uptake Assay
M17 human neuroblastoma cells are plated out on 6 well plates and left overnight. Enough cells are added to give approximately 70% confluent the following day of the experiment. Test compounds are added to media and mixed with equi-molar amounts of CuCl2 solution. A=10 μM Cu+10 μM MPAC; B=10 μM Cu+10 μM MPAC.
Cells are incubated in 1 ml of media/MPAC/Cu mix for 5 hours at 37° C. At the end of the incubation the media is removed with a vacuum aspirator and 1 ml of PBS added to dislodge the cells. Cells are then put into Eppendorf tubes and pelleted. The PBS is removed and the remaining cell pellets are frozen at −20 C.
The cell pellets are prepared as follows:
Received cell pellets of similar levels in 1.5 ml microfuge tubes. Added 50 μl of concentrated Nitric Acid (Aristar, BDH) to each cell pellet and allowed them to digest over night. Heated the samples for 20 min at 90° C. to complete the digestion. The volume of each sample was reduced to ˜45 ul after digestion. Added 1 ml of the 1% Nitric Acid diluent to each sample. (referred to as the “preparation solution” samples).
Measurements were made using a Varian UltraMass ICPMS instrument under operating conditions suitable for routine multi-element analysis.
The instrument was calibrated using Blank, 10, 50 and 100 ppb of a certified multi-element ICPMS standard solution (ICP-MS—CAI2-1, Accustandard) for Fe, Cu and Zn in 1% nitric acid. Used an certified internal standard solution containing 100 ppb Yttrium (Y 89) as an internal control (ICP-MS—IS-MIX1-1, Accustandard).

[4] = tested on: Neuronal cortical cells; test: Cytotox (% viable); Primary Neuronal Cells Neurotoxicity Assay; type: cell-based, mouse; conditions: cell type not given, repeat values given
Description: Assay 2 (a). Primary Neuronal Cells Neurotoxicity Assays
Cortical cultures were prepared as previously described (White et al., 1998). Embryonic day 14 BL6Jx129sv mouse cortices were removed, dissected free of meninges and dissociated in 0.025% (wt/vol) trypsin. Dissociated cells were plated in 48 well culture plates at a density of 2×10^6 cells/mL in MEM with 25% (vol/vol) FCS and 5% (vol/vol) HS and incubated at 37° C., 2 hrs. Media was then replaced with Neurobasal media (Invitrogen Life Technologies) and B27 supplements (Invitrogen Life Technologies). Cultures were maintained at 37° C. in 5% CO2. Prior to experimentation, the culture medium was replaced with Neurobasal media and B27 minus antioxidants (Invitrogen Life Technologies).
Neuronal cortical cells were cultured for five days as per Assay 2 in NB media and B27 supplement.
On day six the test compounds were added to the neuronal cell cultures in NB media and B27 supplement minus antioxidants.
Test compounds were dissolved in 100% DMSO to a concentration of 2.5 mM (10 mM if excess compound was weighed out per vial—then diluted to 2.5 mM). 2.5 mM stock solution was serially diluted 1 in 10 to give working solutions of 250 uM, 25 uM, 2.5 uM. Test compounds were not added directly to cells, instead they were added to a 48 well ‘Drug Plate’ as comprised below: • Preparation of “Drug Plate”:
Well 1: 576 ul NB+B27 (no antioxidant)*+24 ul 2.5 uM test compound
Well 2: 576 ul NB+B27 (no antioxidant)+24 μl 25 uM test compound
Well 3: 576 ul NB+B27 (no antioxidant)+24 ul 250 uM test compound
Well 4: 576 ul NB+B27 (no antioxidant)+24 ul 2.5 uM test compound
Well 5: 576 ul NB+B27 (no antioxidant)+24 ul 25 uM test compound
Well 6: 576 ul NB+B27 (no antioxidant)+24 ul 250 uM test compound
Well 7: 576 ul NB+B27 (no antioxidant)+24 ul test compound diluent**
Well 8: 600 ul NB+B27 (no antioxidant)
The Drug Plate was incubated at 37° C. for 15 mins. 200 ul of each well was added in triplicate to the corresponding cell plate. The cell plate was incubated at 37° C., for 4 days, (2 compounds are tested on each plate of cells).
*NB media and B27 (no antioxidants),
**PBT diluent 10% DMSO in NB+1327 (no antioxidants)
On completion of the assay, 1/10 volume MTS was added per well of plate (ie 25 ul/250 ul). The plates were incubated at 37° C. for 2 hrs, and then absorbance was read at 560 nm.

| Compound | IC50 [1] | Fe-DA % cf. Fe 0.4 μM/DA 50 μM [2] | Metal transport [3] | Cytotox (% viable at 1 uM) [4] | Cytotox (% viable at 10 uM) [4] |
| --- | --- | --- | --- | --- | --- |
| Cn1c(CN2CCCCC2)nc2c(O)c(Cl)cc(Cl)c2c1=O [Compound F4475] | 500 nM | 80% | Metal transport 8% | – | – |
| CCCNCc1nc2c(O)c(Cl)cc(Cl)c2c(=O)n1C [Compound F4477] | 220 nM | 65% | Metal transport 16% | – | – |
| CCCn1c(CN2CCCCC2)nc2c(O)c(Cl)cc(Cl)c2c1=O [Compound F4492] | 1140 nM | 55% | Metal transport 18% | – | – |
| O=c1c2c(Cl)cc(Cl)c(O)c2nc(CN2CCCC2)n1CC1CC1 [Compound F4499] | 1890 nM | 55% | Metal transport 15% | 99.1% and 76.5% | 68.6% and 78.1% |
| CCCN(CCC)Cc1nc2c(O)c(Cl)cc(Cl)c2c(=O)n1CCC [Compound F4543] | 500 nM | 71% | Metal transport 62% | 92.0% and 107.4% | 52.6% and 61.5% |
| CNCc1nc2c(O)c(Cl)cc(Cl)c2c(=O)n1CC(C)C [Compound F4544] | 830 nM | 164% | Metal transport 19% | 84.0% and 86.9% | 29.7% and 26.7% |
| CCNCc1nc2c(O)c(Cl)cc(Cl)c2c(=O)n1CC(C)C [Compound F4545] | 430 nM | 148% | Metal transport 40% | 86.4% and 85.0% | 36.2% and 28.0% |
| CCN(CC)Cc1nc2c(O)c(Cl)cc(Cl)c2c(=O)n1CC(C)C [Compound F4546] | 460 nM | 66% | Metal transport 21% | 95.6% and 92.2% and 103.3% | 63.7% and 86.5% and 100.3% |
| CCCNCc1nc2c(O)c(Cl)cc(Cl)c2c(=O)n1CC [Compound F4549] | 300 nM | 40% | Metal transport 22% | 98.5% and 99.7% | 44.6% and 52.1% |
| CCCN(CCC)Cc1nc2c(O)c(Cl)cc(Cl)c2c(=O)n1CC [Compound F4550] | 750 nM | 128% | Metal transport 35% | 88.7% and 94.7% | 71.7% and 83.5% |
| CCCN(CCC)Cc1nc2c(O)c(Cl)cc(Cl)c2c(=O)n1C [Compound F4551] | 450 nM | 56% | Metal transport 30% | 89.7% and 96.9% | 50.7% and 62.5% |
| CCN(C)Cc1nc2c(O)c(Cl)cc(Cl)c2c(=O)n1C [Compound F4582] | 550 nM | – | – | – | – |

The next lines start with results.

| IC50 [1] | Compound | Fe-DA % cf. Fe 0.4 μM/DA 50 μM [2] | Metal transport [3] | Cytotox (% viable at 1 uM) [4] | Cytotox (% viable at 10 uM) [4] |
| --- | --- | --- | --- | --- | --- |
| 570 nM | C#CCN(C)Cc1nc2c(O)c(Cl)cc(Cl)c2c(=O)n1CC [Compound F4392] | 72% | Metal transport 161% | – | – |
| 470 nM | CN(Cc1ccc(F)cc1)Cc1nc2c(O)c(Cl)cc(Cl)c2c(=O)n1CC1CC1 [Compound F4480] | 46% | Metal transport 138% | 91.6% and 106.7% | 30.3% and 33.3% |
| 760 nM | CCn1c(CN(C)Cc2ccc(F)cc2)nc2c(O)c(Cl)cc(Cl)c2c1=O [Compound F4487] | 53% | Metal transport 133% | – | – |
| 290 nM | CCCn1c(CN(C)C)nc2c(O)c(Cl)cc(Cl)c2c1=O [Compound F4530] | 57% | Metal transport 24% | 105.0% and 96.2% | 57.6% and 41.4% |
| 880 nM | CCCN(CCC)Cc1nc2c(O)c(Cl)cc(Cl)c2c(=O)n1CC1CC1 [Compound F4535] | 62% | Metal transport 25% | 87.0% and 103.0% | 63.6% and 59.8% |
| 1000 nM | CN(Cc1nc2c(O)c(Cl)cc(Cl)c2c(=O)n1CC1CC1)C1CCCCC1 [Compound F4536] | 81% | Metal transport 24% | 92.7% and 105.1% and 109.8% | – |
| > 10000 nM | CCCn1c(CNCC)nc2c(O)c(Cl)cc(Cl)c2c1=O [Compound F4540] | 122% | Metal transport 14% | 100.4% and 111.5% | 83.4% and 96.5% |
| 740 nM | CCCn1c(CN(CC)CC)nc2c(O)c(Cl)cc(Cl)c2c1=O [Compound F4541] | 107% | Metal transport 13% | 97.3% and 96.4% | 76.6% and 90.8% |
| 360 nM | CCCNCc1nc2c(O)c(Cl)cc(Cl)c2c(=O)n1CCC [Compound F4542] | 47% | Metal transport 30% | 105.8% and 102.9% and 94.3% | – |
| 500 nM | CCCNCc1nc2c(O)c(Cl)cc(Cl)c2c(=O)n1CC(C)C [Compound F4547] | 34% | Metal transport 54% | 75.0% and 83.9% | 25.2% and 26.0% |
| 380 nM | CCCN(CCC)Cc1nc2c(O)c(Cl)cc(Cl)c2c(=O)n1CC(C)C [Compound F4548] | 40% | Metal transport 38% | 96.5% and 96.0% | 55.9% and 46.0% |
| 630 nM | CCCCN(C)Cc1nc2c(O)c(Cl)cc(Cl)c2c(=O)n1C [Compound F4552] | 59% | Metal transport 94% | 97.8% and 99.0% | 58.7% and 62.8% |
| 500 nM | CCN(C)Cc1nc2c(O)c(Cl)cc(Cl)c2c(=O)n1CC1CC1 [Compound F4581] | – | – | – | – |
